In general, IC50 refers to the concentration that gives 50% inhibition.

The text below walks through data of patent US20240400555A1 (Initial Therapeutics, Inc., priority 2023, published 2024).

Molecules are shown by their SMILES.

For the first assay, the system named is MV-4-11 cells. Nature of the assay: Cell Viability Assay in MV-4-11 Cells. The note with it: Homo sapiens, MV4-11, 72 h. Format: cell-based. The method, then: MV-4-11 cells (ATCC) were seeded into sterile 96-well flat clear bottom white polystyrene TC-treated microplates (Corning) at 7,000 cells/well in 150 μL complete growth medium (Iscove's Modified Dulbecco's Medium (IMDM) (Gibco), 10% Heat Inactivated Fetal Bovine Serum (HyClone), 1% Penicillin-Streptomycin-L-Glutamine (HyClone), 1% GlutaMAX (Gibco)). […] After 72 h incubation, plates were removed from incubators and allowed to equilibrate to room temperature (˜10 min) before adding 50 μL per well Cell-Titer Glo reagent (Promega) using a WellJet (Integra Biosciences) dispenser. Plates were then incubated at room temperature for 2-20 min prior to measurement of luminescence on an Envision (Perkin Elmer) plate reader. Data were normalized to DMSO (100% viability) and analyzed using a non-linear four-parameter curve fit.
Consider `CC(C)NC(=O)c1ccc2c(N(C(=O)c3ccc(-n4nnc5cccnc54)cc3F)[C@@H]3CCCNC3)nccc2c1` [Example 372, (R)-1-(4-(3H-[1,2,3]triazolo[4,5-b]pyridin-3-yl)-2-fluoro-N-(piperidin-3-yl)benzamido)-N-isopropylisoquinoline-6-carboxamide], for which the IC50 came out at 100 nM.

Regarding `CC(C)(O)C#Cc1cc2c(N(C(=O)c3ccc(-n4nnc5cccnc54)cc3F)[C@@H]3CCCNC3)nccc2s1` [Example 376, 2-fluoro-N-[2-(3-hydroxy-3-methyl-but-1-ynyl)thieno[3,2-c]pyridin-4-yl]-N-[(3R)-3-piperidyl]-4-(triazolo[4,5-b]pyridin-3-yl)benzamide], the IC50 was 680 nM.

The assay is the same for the next values; noted with them: Homo sapiens, MV4-11, 72 h, MV-4-11 cells, 72 h, Cell-Titer Glo; read-out: IC50.
In the case of `Cn1cc(-c2ccc(C(=O)N(c3nccc4cc(-c5cccnc5)ccc34)[C@@H]3CCCNC3)c(F)c2)nn1` [Example 370, (R)-2-fluoro-4-(1-methyl-1H-1,2,3-triazol-4-yl)-N-(piperidin-3-yl)-N-(6-(pyridin-3-yl)isoquinolin-1-yl)benzamide], the IC50 came out at 180 nM.

On to `O=C(NCCO)c1ccc2c(N(C(=O)c3ccc(-n4nnc5cccnc54)cc3F)[C@@H]3CCCNC3)nccc2c1` [Example 371, (R)-1-(4-(3H-[1,2,3]triazolo[4,5-b]pyridin-3-yl)-2-fluoro-N-(piperidin-3-yl)benzamido)-N-(2-hydroxyethyl) isoquinoline-6-carboxamide], for which the IC50 worked out at 1300 nM.

For `O=C(NCc1ccccc1)c1ccc2c(N(C(=O)c3ccc(-n4nnc5cccnc54)cc3F)[C@@H]3CCCNC3)nccc2c1` [Example 373, (R)-1-(4-(3H-[1,2,3]triazolo[4,5-b]pyridin-3-yl)-2-fluoro-N-(piperidin-3-yl)benzamido)-N-benzylisoquinoline-6-carboxamide], the IC50 worked out at 180 nM.

With `CNC(=O)c1cc(-c2cc3c(N(C(=O)c4ccc(-n5nnc6cccnc65)cc4F)[C@@H]4CCCNC4)nccc3s2)ccn1` [Example 374, 4-[4-[[2-fluoro-4-(triazolo[4,5-b]pyridin-3-yl)benzoyl]-[(3R)-3-piperidyl]amino]thieno[3,2-c]pyridin-2-yl]-N-methyl-pyridine-2-carboxamide], the IC50 amounted to 600 nM.

Turning to `COC(=O)c1ccc(-c2cc3c(N(C(=O)c4ccc(-n5nnc6cccnc65)cc4F)[C@@H]4CCCNC4)nccc3s2)cc1` [Example 375, methyl 4-[4-[[2-fluoro-4-(triazolo[4,5-b]pyridin-3-yl)benzoyl]-[(3R)-3-piperidyl]amino]thieno[3,2-c]pyridin-2-yl]benzoate], the IC50 came out at 600 nM.

`O=C(c1ccc(-n2nnc3cccnc32)cc1F)N(c1nccc2sc(-c3ccc(O)cc3)cc12)[C@@H]1CCCNC1` [Example 377, (R)-4-(3H-[1,2,3]triazolo[4,5-b]pyridin-3-yl)-2-fluoro-N-(2-(4-hydroxyphenyl)thieno[3,2-c]pyridin-4-yl)-N-(piperidin-3-yl)benzamide]: the IC50 amounted to 1300 nM.

`COc1ccc(-c2cc3c(N(C(=O)c4ccc(-n5nnc6cccnc65)cc4F)[C@@H]4CCCNC4)nccc3s2)cc1` [Example 378, 2-fluoro-N-[2-(4-methoxyphenyl)thieno[3,2-c]pyridin-4-yl]-N-[(3R)-3-piperidyl]-4-(triazolo[4,5-b]pyridin-3-yl)benzamide]: the IC50 turned out to be 190 nM.

As to `O=C(O)c1ccc(-c2cc3c(N(C(=O)c4ccc(-n5nnc6cccnc65)cc4F)[C@@H]4CCCNC4)nccc3s2)cc1` [Example 379, 4-[4-[[2-fluoro-4-(triazolo[4,5-b]pyridin-3-yl)benzoyl]-[(3R)-3-piperidyl]amino]thieno[3,2-c]pyridin-2-yl]benzoic acid], the IC50 was > 10000 nM.

As to `CNC(=O)c1ccc(-c2cc3c(N(C(=O)c4ccc(-n5nnc6cccnc65)cc4F)[C@@H]4CCCNC4)nccc3s2)cc1` [Example 380, 2-fluoro-N-[2-[4-(methylcarbamoyl)phenyl]thieno[3,2-c]pyridin-4-yl]-N-[(3R)-3-piperidyl]-4-(triazolo[4,5-b]pyridin-3-yl)benzamide], the half-maximal inhibitory concentration (IC50) came out at 120 nM.

Take `O=C(c1ccc(-n2nnc3cccnc32)cc1F)N(c1nccc2sc(-c3cccc(O)c3)cc12)[C@@H]1CCCNC1` [Example 381, 2-fluoro-N-[2-(3-hydroxyphenyl)thieno[3,2-c]pyridin-4-yl]-N-[(3R)-3-piperidyl]-4-(triazolo[4,5-b]pyridin-3-yl)benzamide]: the IC50 came to 200 nM.

Take `C#Cc1cc2c(N(C(=O)c3ccc(-n4nnc5cccnc54)cc3F)[C@@H]3CCCNC3)nccc2s1` [Example 382, N-(2-ethynylthieno[3,2-c]pyridin-4-yl)-2-fluoro-N-[(3R)-3-piperidyl]-4-(triazolo[4,5-b]pyridin-3-yl)benzamide]: the IC50 amounted to 640 nM.

As to `Nc1cc(-c2cc3c(N(C(=O)c4ccc(-n5nnc6cccnc65)cc4F)[C@@H]4CCCNC4)nccc3s2)ccn1` [Example 383, N-[2-(2-amino-4-pyridyl)thieno[3,2-c]pyridin-4-yl]-2-fluoro-N-[(3R)-3-piperidyl]-4-(triazolo[4,5-b]pyridin-3-yl)benzamide], the IC50 stood at 200 nM.

As to `O=C(c1ccc(-n2nnc3cccnc32)cc1F)N(c1nccc2cc(-c3ccncc3)sc12)[C@@H]1CCCNC1` [Example 384, 2-fluoro-N-[(3R)-3-piperidyl]-N-[2-(4-pyridyl)thieno[2,3-c]pyridin-7-yl]-4-(triazolo[4,5-b]pyridin-3-yl)benzamide], the IC50 amounted to 110 nM.

Take `COc1cccc(-c2cc3c(N(C(=O)c4ccc(-n5nnc6cccnc65)cc4F)[C@@H]4CCCNC4)nccc3s2)c1` [Example 385, (R)-4-(3H-[1,2,3]triazolo[4,5-b]pyridin-3-yl)-2-fluoro-N-(2-(3-methoxyphenyl)thieno[3,2-c]pyridin-4-yl)-N-(piperidin-3-yl)benzamide]: the IC50 worked out at 520 nM.

Regarding `N#Cc1cc(-c2cc3c(N(C(=O)c4ccc(-n5nnc6cccnc65)cc4F)[C@@H]4CCCNC4)nccc3s2)ccn1` [Example 386, N-[2-(2-cyano-4-pyridyl)thieno[3,2-c]pyridin-4-yl]-2-fluoro-N-[(3R)-3-piperidyl]-4-(triazolo[4,5-b]pyridin-3-yl)benzamide], the IC50 was found to be 330 nM.

Consider `N#Cc1ccc(-c2cc3c(N(C(=O)c4ccc(-n5nnc6cccnc65)cc4F)[C@@H]4CCCNC4)nccc3s2)cc1` [Example 387, N-[2-(4-cyanophenyl)thieno[3,2-c]pyridin-4-yl]-2-fluoro-N-[(3R)-3-piperidyl]-4-(triazolo[4,5-b]pyridin-3-yl)benzamide], for which the IC50 is 300 nM.

Take `Cc1cccc2ccnc(N(C(=O)c3ccc(-c4cnn(C)c4N)cc3F)[C@@H]3CCCNC3)c12` [Example 388, 4-(5-amino-1-methyl-pyrazol-4-yl)-2-fluoro-N-(8-methyl-1-isoquinolyl)-N-[(3R)-3-piperidyl]benzamide]: the IC50 turned out to be 76 nM.

Regarding `Cc1nc(-c2ccc(C(=O)N(c3nccc4cccc(C)c34)[C@@H]3CCCNC3)c(F)c2)c(N)[nH]1` [Example 389, 4-(5-amino-2-methyl-1H-imidazol-4-yl)-2-fluoro-N-(8-methyl-1-isoquinolyl)-N-[(3R)-3-piperidyl]benzamide], the IC50 is > 10000 nM.

As to `Cc1cccc2ccnc(N(C(=O)c3ccc(-c4nn(C)nc4Br)cc3F)[C@@H]3CCCNC3)c12` [Example 390, 4-(5-bromo-2-methyl-triazol-4-yl)-2-fluoro-N-(8-methyl-1-isoquinolyl)-N-[(3R)-3-piperidyl] benzamide], the IC50 was found to be 240 nM.
